This passage reports EC50 and Kd results from patent US10947252B2, “Inhibitors of KEAP1-Nrf2 protein-protein interaction” (Janssen Pharmaceutica NV, priority 2018, dated 2021).

Where only a bound is given, the exact number is not on record here.

The subject of test [1] is Glo-Response ARE-luc2P HEK293 cell line. Description: ARE luciferase reporter cell-based assay.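 Note: luciferase signal tracks Nrf2 activation of the ARE once compounds disrupt KEAP1-Nrf2 binding, read with One-Glo reagent, DMSO serving as low control.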 To be noted: Homo sapiens, HEK293, 24 h, average of results obtained.
In test [2] the target is Kelch domain of human KEAP1 (321-624 aa) (Homo sapiens (Human), UniProt Q14145). Description: KEAP1 KELCH ThermoFluor binding assay.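 Note: Ligand-induced melting temperature shift of E. coli-expressed KEAP1 Kelch protein, Kd estimated from concentration-response curves of ΔTm.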 To be noted: KEAP Kelch […], 1,8-ANS, pH 7.0, average of results obtained, read-out: Tf Kd. (In general: DSF heats the sample and reads unfolding from a dye or from intrinsic fluorescence.)
Sequence of Kelch domain of human KEAP1 (321-624 aa) (Q14145 321-624): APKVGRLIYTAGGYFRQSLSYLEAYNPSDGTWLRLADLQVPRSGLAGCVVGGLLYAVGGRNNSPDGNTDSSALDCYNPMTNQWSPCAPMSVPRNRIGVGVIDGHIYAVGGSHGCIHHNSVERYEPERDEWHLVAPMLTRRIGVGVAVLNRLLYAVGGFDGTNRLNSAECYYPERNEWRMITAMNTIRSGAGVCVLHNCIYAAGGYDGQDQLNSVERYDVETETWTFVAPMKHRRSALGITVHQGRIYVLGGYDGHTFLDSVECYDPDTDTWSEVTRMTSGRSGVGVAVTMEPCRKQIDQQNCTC

Turning to `Cc1ccc([C@@H](c2ccn3c(C(F)(F)F)nnc3c2C)C(C)(C)C(=O)O)cc1CN1CC2(CCOCC2)Oc2ncccc2S1(=O)=O` (single isomer, unassigned) [Example 409, (*S)-3-(3-((1′,1′-dioxido-2,3,5,6-tetrahydrospiro[pyran-4,4′-pyrido[2,3-b][1,4,5]oxathiazepin]-2′(3′H)-yl)methyl)-4-methylphenyl)-2,2-dimethyl-3-(8-methyl-3-(trifluoromethyl)-[1,2,4]triazolo[4,3-a]pyridin-7-yl)propanoic Acid], the response in test [1] was half-maximal at 2.64 nM (EC50). The Kd in test [2] was under 1 nM.

`Cc1cnc([C@H](c2ccn3c(C(F)(F)F)nnc3c2C)C(C)(C)C(=O)O)cc1CN1CC2(CCOCC2)Oc2ncccc2S1(=O)=O` (single isomer, unassigned) [Example 57, (*R)-3-(4-((1′,1′-Dioxido-2,3,5,6-tetrahydrospiro[pyran-4,4′-pyrido[2,3-b][1,4,5]oxathiazepin]-2′(3′H)-yl)methyl)-5-methylpyridin-2-yl)-2,2-dimethyl-3-(8-methyl-3-(trifluoromethyl)-[1,2,4]triazolo[4,3-a]pyridin-7-yl)propanoic Acid] registered an EC50 in test [1] of 6660 nM. Moreover, the Kd in test [2] is 5670 nM.

As to `Cc1ccc([C@H](CC(=O)O)c2ccc3c(nnn3C3CC3)c2C)cc1CN1CC2(COC2)Oc2ccccc2S1(=O)=O` (single isomer, unassigned) [Example 215, (*S)-3-(1-Cyclopropyl-4-methyl-1H-benzo[d][1,2,3]triazol-5-yl)-3-(3-((1,1-dioxidospiro[benzo[b][1,4,5]oxathiazepine-4,3′-oxetan]-2(3H)-yl)methyl)-4-methylphenyl)propanoic Acid], the midpoint of the response in test [1], the EC50, lay at 3.3 nM. Also, the Kd in test [2] was under 1 nM.

`CCn1nnc2c(C)c([C@@H](c3ccc(C)c(CN4CC5(CCOCC5)Oc5ncc(C)cc5S4(=O)=O)n3)C(C)(C)C(=O)O)ccc21` (single isomer, unassigned) [Example 558, (*R)-3-(1-Ethyl-4-methyl-1H-benzo[d][1,2,3]triazol-5-yl)-2,2-dimethyl-3-(5-methyl-6-((8′-methyl-1′,1′-dioxido-2,3,5,6-tetrahydrospiro[pyran-4,4′-pyrido[2,3-b][1,4,5]oxathiazepin]-2′(3′H)-yl)methyl)pyridin-2-yl)propanoic Acid] returned an EC50 in test [1] of 195 nM. In test [2], the Kd was 343 nM.

For the compound `Cc1cnc2c(c1)S(=O)(=O)N(Cc1cc([C@H](c3cc4cc(C)nnc4n3C)C(C)(C)C(=O)O)ccc1C)CC1(CC1)O2` (single isomer, unassigned) [Example 331, (*R)-3-(3,7-Dimethyl-7H-pyrrolo[2,3-c]pyridazin-6-yl)-2,2-dimethyl-3-(4-methyl-3-((8′-methyl-1′,1′-dioxidospiro[cyclopropane-1,4′-pyrido[2,3-b][1,4,5]oxathiazepin]-2′(3′H)-yl)methyl)phenyl)propanoic Acid], it took 17.1 nM to reach a half-maximal effect in test [1] (EC50). The Kd in test [2] is under 1 nM.

Regarding `Cc1ccc([C@@H](CC(=O)O)c2ccc3c(nnn3C3CC3)c2C)cc1CN1C[C@@H]2COCCN2c2ncccc2S1(=O)=O` (single isomer, unassigned) [Example 25, (*R)-3-(1-Cyclopropyl-4-methyl-1H-benzo[d][1,2,3]triazol-5-yl)-3-(3-(((*R)-5,5-dioxido-7a,8,10,11-tetrahydro-[1,4]oxazino[3,4-d]pyrido[2,3-f][1,2,5]thiadiazepin-6(7H)-yl)methyl)-4-methylphenyl)propanoic Acid], the concentration giving a half-maximal response (EC50) in test [1] is 21 nM. In test [2], the Kd was determined as 2.12 nM.

In test [1], `Cc1c(C(CC(=O)O)c2ccc(Cl)c(CN3CC4CCCCN4c4ncccc4S3(=O)=O)c2)ccn2c(C(F)(F)F)nnc12` (centres unmarked) [Example 83, 3-(4-Chloro-3-(((*S)-5,5-dioxido-7,7a,8,9,10,11-hexahydro-6H-dipyrido[2,1-d:2′,3′-f][1,2,5]thiadiazepin-6-yl)methyl)phenyl)-3-(8-methyl-3-(trifluoromethyl)-[1,2,4]triazolo[4,3-a]pyridine-7-yl)propanoic Acid] yielded an EC50 of 232 nM. Moreover, the Kd in test [2] was under 1 nM.

Broadly, the EC50 is the concentration needed to bring the measured effect to its halfway point. A high value points to a need for much substance. By Kd is commonly meant the constant that tells how readily two partners part at equilibrium.
